Experimental findings from patent US7323490B2, “Pyrrole compounds and uses thereof” (Ambit Biosciences Corporation, priority 2003, dated 2008) are described below.

One assay deals with focal cerebral ischemia. In words: Rat MCAO model, time schedules of administration (Example 11). The class given is in vivo. Particulars: 25 hrs post, 48 h. The method, then:
The compounds were tested on a standardized rodent focal cerebral ischemia model produced by permanent occlusion of the right middle cerebral artery (MCA) plus one hour of tandem carotid artery occlusion according to Chen et al. A total of 96 animals underwent MCAo using subcutaneous administration of all test articles, according to the experimental design illustrated in Table 5 below. Three compounds at one predetermined dose were compared to vehicle and assigned to three different time schedules of administration relative to the time of MCAo. […] The time schedules for administration of all treated groups were divided as follows:
A second group of eighteen animals were used to test compound A (782236) using the treatment schedule, shown (a, b & c) above via intravenous (I.V.) administration. Groups of n=5 animals per treatment time period with compound A and 3 animals per control group via tail vein.
Animal Preparation and Middle Cerebral Artery Occlusion. Male, adult, Sprague-Dawley rats (Charles River), weighing 300-400 grams, were used for the study. All animals were acclimated at least for five days before entering the study. Animals were housed in a standard animal facility and fed with commercial rodent chow ad libitum. All animals were anesthetized via intramuscular injection (4 mL/kg) of “cocktail” containing ketamine (25 mg/mL), xylazine (1.3 mg/mL) and acepromazine (0.33 mg/mL). Both carotid arteries were separated with great caution to minimize the vagal nerve stimulation. The right proximal MCA trunk was exposed through a subtemporal craniectomy without transecting the facial nerve. […] Immediately following MCA occlusion, both of the common carotid arteries were occluded for 1 hour using surgical aneurysm micro-clips (ROBOZ INC). Animals were put into temperature regulated recovery chamber for 1 hour before the clips were removed from the common carotid arteries. Body temperature was maintained at 37±0.5° C. during the surgery using a heating blanket connected to a temperature controller.
Experimental Groups and Compound Administration. A total of 96 animals underwent MCAo using subcutaneous administration of all test articles, according to the experimental design illustrated in Table 5 below. Three compounds at one predetermined dose were compared to vehicle and assigned to three different time schedules of administration relative to the time of MCAo. […] The time schedules for administration of all treated groups were divided as follows:
A second group of eighteen animals were used to test compound A (782236) using the treatment schedule, shown (a, b & c) above via I.V. administration. Groups of n=5 animals per treatment time period with compound A and 3 animals per control group via tail vein.
Infarct Measurement. Forty-eight hours following MCAo, animals were euthanized with inhalation of CO2. Brains were removed and chilled in ice saline for 10 min. The brains were put in a metal rodent brain slicer. Each rat brain was cut coronally into 7 sections, with each section being 2 mm thick. The brain sections were immersed in 2% TTC solution for 30 min at 37° C. The areas of cerebral infarcts were determined on seven slices, using a computer-interfaced imaging system, Image-Pro® Plus, Version 4.4 for Windows (Media Cybernetics, MD). Infarct areas were then summed among slices and multiplied by slice thickness to give the total infarct volume.
Statistics. All data are expressed as mean±SEM. In Section A, infarct volume was analyzed using Student t Test. A p value of ≦0.05 was considered a statistically significant difference. All statistical analyses were performed with the software package JMP version 4.0 (SAS Institute Inc., Cary, N.C.).

Assay [1] relates to focal cerebral infarcts (MCAo). Put plainly: Body swing test, Tamura MCAo model. Particulars: AVG. The class given is in vivo, rat. Also on record: unit not given here. An excerpt: Surgical Preparation. Middle Cerebral Artery Occlusion (MCAo), Tamura Model. Focal cerebral infarcts were made by permanent occlusion of the proximal right middle cerebral artery using a modification of the method of Tamura et al. […] The temporalis muscle was bisected and reflected through an incision made midway between the eye and the eardrum canal. The proximal MCA was exposed through a subtemporal craniectomy without removing the zygomatic arch and without transecting the facial nerve. […] Animals were euthanatized at various time periods after MCA occlusion and the brains are removed for histological analysis. Behavioral Analysis. Two behavioral tests were performed, the limb placing and body swing test. […] Body Swing Test. The animal was held approximately 1 inch from the base of its tail. It was then elevated to an inch above a surface of a table. The animal was held in the vertical axis, defined as no more than 10° to either the left or the right side. A swing was recorded whenever the animal moves its head out of the vertical axis to either side. Before attempting another swing, the animal must return to the vertical position for the next swing to be counted. Thirty total swings were counted. A normal animal typically has an equal number of swings to either side. Following focal stroke, the animal tends to swing to the contralateral side. There is a slow spontaneous recovery of body swing during the first month after stroke. Experimental Groups and Compound Administration. A total of 80 animals underwent MCAo using subcutaneous administration of all test articles, according to the experimental design illustrated in Table 16. […] All animals were treated with the compound(s)/vehicle(s) as a blinded random investigation. The dose and route of administration is given below in Table 16.

Assay [2] has as its system focal cerebral infarcts (MCAo). Put plainly: Hindlimb placing test, Tamura MCAo model. The class given is in vivo, rat. Particulars: AVG, 0=normal, 6=maximally impaired. An excerpt:
Surgical Preparation. Middle Cerebral Artery Occlusion (MCAo), Tamura Model. Focal cerebral infarcts were made by permanent occlusion of the proximal right middle cerebral artery using a modification of the method of Tamura et al. […] The temporalis muscle was bisected and reflected through an incision made midway between the eye and the eardrum canal. The proximal MCA was exposed through a subtemporal craniectomy without removing the zygomatic arch and without transecting the facial nerve. […] Animals were euthanatized at various time periods after MCA occlusion and the brains are removed for histological analysis. Behavioral Analysis. Two behavioral tests were performed, the limb placing and body swing test. […] Limb Placing. The limb placing tests were divided into both forelimb and hindlimb tests. For the forelimb-placing test, the examiner held the rat close to a tabletop and scored the rat's ability to place the forelimb on the tabletop in response to whisker, visual, tactile, or proprioceptive stimulation. Similarly, for the hindlimb placing test, the examiner assessed the rat's ability to place the hindlimb on the tabletop in response to tactile and proprioceptive stimulation. […] Typically, there was a slow and steady recovery of limb placing behavior during the first month after stroke. Experimental Groups and Compound Administration. A total of 80 animals underwent MCAo using subcutaneous administration of all test articles, according to the experimental design illustrated in Table 16. […] All animals were treated with the compound(s)/vehicle(s) as a blinded random investigation. The dose and route of administration is given below in Table 16.

Setting [3] is: SC, schedule a: 2 hrs pre, 3 hrs post, doses per Table 5 (782236 1/0.5/0.5, others 10/5/5 mg/kg).
Setting [4] is: SC, schedule b: 1 hr post, 3 hrs post, doses per Table 5.
Setting [5] is: SC, schedule c: 3 hrs post, 6 hrs post, doses per Table 5.
Setting [6] is: administered six hours after MCAo.
Where [7] appears, read: administered three hours after MCAo.

Turning to `CC(C)c1[nH]c(-c2ccc(F)cc2)c(-c2ccccc2)c1C(=O)Nc1ccccc1` [Compound 781430], in the assay with focal cerebral ischemia (setting [3]), the infarction volume is recorded as 78.89±28.46 mm^3. The compound further yielded an infarction volume with focal cerebral ischemia (setting [4]) of 96.51±31.62 mm^3. The compound also registered an infarction volume with focal cerebral ischemia (setting [5]) of 121.39±22.53 mm^3. Further, in assay [1] (setting [6]), the “Body swing test score, D0” value was found to be 50; the “Body swing test score, D1” value came to 19; the “Body swing test score, D3” value turned out to be 22; the “Body swing test score, D7” value is reported as 23. Also, in assay [1] (setting [7]), the “Body swing test score, D0” value was 50; the “Body swing test score, D1” value was determined as 31; the “Body swing test score, D3” value was found to be 43; the “Body swing test score, D7” value was found to be 44. Further, in assay [2] (setting [6]), the “Hindlimb placing test score, D0” value is recorded as 0; the “Hindlimb placing test score, D1” value is listed as 5.3; the “Hindlimb placing test score, D3” value is given as 3.5; the “Hindlimb placing test score, D7” value was 3. Moreover, in assay [2] (setting [7]), the “Hindlimb placing test score, D0” value was found to be 0; the “Hindlimb placing test score, D1” value came out at 4.1; the “Hindlimb placing test score, D3” value came out at 2.8; the “Hindlimb placing test score, D7” value stood at 2.1.

Regarding `CC(C)c1c(C(=O)Nc2ccccc2)c(-c2ccccc2)c(-c2ccc(F)cc2)n1CC(O)C(O)C(O)C(O)CO` (stereo not drawn) [Compound 782236], the infarction volume in the assay on focal cerebral ischemia (IV, schedule a: 2 hrs pre, 3 hrs post, 1/0.5/0.5 mg/kg) is 186.8±9.2 mm^3; in the assay on focal cerebral ischemia (IV, schedule b: 1 hr post, 3 hrs post), 122.8±17.9 mm^3; in the assay with focal cerebral ischemia (IV, schedule c: 3 hrs post, 6 hrs post), 73.8±18.1 mm^3; in the assay with focal cerebral ischemia (setting [3]), 138.6±35.13 mm^3; with focal cerebral ischemia (setting [4]), 171.04±33.04 mm^3; with focal cerebral ischemia (setting [5]), 155.53±29.66 mm^3. Also, the “Body swing test score, D0” value in assay [1] (setting [6]) and in assay [1] (setting [7]) was 50 each time. In addition, the “Body swing test score, D1” value in assay [1] (setting [6]) worked out at 7; in assay [1] (setting [7]) it was 8. The “Body swing test score, D3” value in assay [1] (setting [6]) amounted to 9; in assay [1] (setting [7]) it was 27. Moreover, the “Body swing test score, D7” value was 23 in assay [1] (setting [6]) and 37 in assay [1] (setting [7]). Besides, the “Hindlimb placing test score, D0” value in assay [2] (setting [6]) and in assay [2] (setting [7]) was 0 each time. The “Hindlimb placing test score, D1” value is on record as 4.7 in assay [2] (setting [6]) and 4.6 in assay [2] (setting [7]). Further, the “Hindlimb placing test score, D3” value in assay [2] (setting [6]) and in assay [2] (setting [7]) was 4 in each case. For the same compound, the “Hindlimb placing test score, D7” value in assay [2] (setting [6]) is 3.3; in assay [2] (setting [7]), 3.2.

Compound `CC(C)c1c(C(=O)Nc2ccccc2)c(-c2ccccc2)c(-c2ccc(F)cc2)n1CC[C@@H](O)C[C@@H](O)CC(=O)O` [atorvastatin, reference compound] yielded an infarction volume with focal cerebral ischemia (setting [3]) of 80.35±30.41 mm^3. The same compound returned an infarction volume in the assay with focal cerebral ischemia (setting [4]) of 121.52±22.58 mm^3. The same compound yielded an infarction volume in the assay on focal cerebral ischemia (setting [5]) of 127.16±25.77 mm^3. In assay [1] (setting [6]), the “Body swing test score, D0” value turned out to be 50; the “Body swing test score, D1” value is given as 19; the “Body swing test score, D3” value came out at 17; the “Body swing test score, D7” value was 19. Also, in assay [1] (setting [7]), the “Body swing test score, D0” value is recorded as 50; the “Body swing test score, D1” value was determined as 13; the “Body swing test score, D3” value is given as 28; the “Body swing test score, D7” value is given as 41. Also, in assay [2] (setting [6]), the “Hindlimb placing test score, D0” value is reported as 0; the “Hindlimb placing test score, D1” value worked out at 5.9; the “Hindlimb placing test score, D3” value amounted to 4.9; the “Hindlimb placing test score, D7” value was determined as 3.5. In addition, in assay [2] (setting [7]), the “Hindlimb placing test score, D0” value amounted to 0; the “Hindlimb placing test score, D1” value is reported as 5.6; the “Hindlimb placing test score, D3” value is reported as 4.3; the “Hindlimb placing test score, D7” value was found to be 2.8.
